Experimental data from US9850283B2, “Macrocyclic inhibitors of the PD-1/PD-L1 and CD80(B7-1)/PD-L1 protein/protein interactions” (BRISTOL-MYERS SQUIBB COMPANY, priority 2013, dated 2017).
Like-named read-outs stand apart in the source and are kept apart here. Positions of bridges follow the written chain, without caps; N, C: chain ends. Non-standard residues stand in square brackets, D forms with d. Residues, ends and D or L forms follow the SMILES beside them. ξ: configuration not given here. Pro(trans-4-cHex) = O=C(O)[C@@H]1C[C@@H](C2CCCCC2)CN1; Phe(F5) = N[C@@H](Cc1c(F)c(F)c(F)c(F)c1F)C(=O)O; NMeW = CN[C@@H](Cc1c[nH]c2ccccc12)C(=O)O; Phe(3-Cl) = N[C@@H](Cc1cccc(Cl)c1)C(=O)O; 2Nal = N[C@@H](Cc1ccc2ccccc2c1)C(=O)O; Bta = N[C@@H](Cc1csc2ccccc12)C(=O)O; cisHyp = O=C(O)[C@@H]1C[C@H](O)CN1; Hyp = O=C(O)[C@@H]1C[C@@H](O)CN1; NMeF = CN[C@@H](Cc1ccccc1)C(=O)O; NMeNle = CCCC[C@H](NC)C(=O)O; NMeM = CN[C@@H](CCSC)C(=O)O; NMeA = CN[C@@H](C)C(=O)O; Orn = NCCC[C@H](N)C(=O)O; Dap = NC[C@H](N)C(=O)O; ξC = NC(CS)C(=O)O; Sar = CNCC(=O)O

What was measured:
[1] = molecular target: T1, Human PD-L1/PD-1 (Homo sapiens, UniProt Q9NZQ7); experiment: HTRF PD-1-Ig/PD-L1-His binding assay (human PD-L1)
T1 construct: made in house; host or cells: HEK293T
T1 sequence (Q9NZQ7 with tags, fused parts or gaps): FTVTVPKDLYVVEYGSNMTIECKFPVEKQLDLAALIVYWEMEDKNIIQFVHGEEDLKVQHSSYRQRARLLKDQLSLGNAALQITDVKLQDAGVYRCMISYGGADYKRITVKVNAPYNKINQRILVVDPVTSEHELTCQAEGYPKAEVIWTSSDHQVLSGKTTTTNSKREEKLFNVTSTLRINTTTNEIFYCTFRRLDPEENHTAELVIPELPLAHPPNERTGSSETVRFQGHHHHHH
Method in brief: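 Ig- and His-fused extracellular PD-1/PD-L1 binding in BSA/Tween-20 dPBS. HTRF with Eu anti-Ig (1 nM final) and APC anti-His (20 nM final).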

[2] = molecular target: T2, LK35.2-hPD-L1 cells / PE-labeled PD-1-Ig (Homo sapiens, UniProt Q9NZQ7); experiment: LK35.2-hPD-L1 cell binding high-content screening assay; assay type: cell-based
T2 construct: expressed in transfected cells; host or cells: LK35.2 mouse B cell line
T2 sequence (Q9NZQ7 19-290): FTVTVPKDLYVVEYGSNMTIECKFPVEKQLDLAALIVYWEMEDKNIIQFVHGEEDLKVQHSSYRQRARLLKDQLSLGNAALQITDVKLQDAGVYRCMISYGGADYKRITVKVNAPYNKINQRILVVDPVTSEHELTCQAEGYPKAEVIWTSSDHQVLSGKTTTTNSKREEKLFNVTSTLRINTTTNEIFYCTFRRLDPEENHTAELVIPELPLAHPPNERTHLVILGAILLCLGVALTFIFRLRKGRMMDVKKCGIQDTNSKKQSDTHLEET
Method in brief: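 Using overnight-cultured LK35.2-hPD-L1 mouse B cells, compound was co-incubated with phycoerythrin-tagged human PD-1-Ig (final 1 nM) at 37 °C for one hour. Unbound label was removed by triple dPBS washing prior to high-content image acquisition and analysis.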

[3] = cluster symbol, read-out: HTRF IC50 cluster
[4] = cluster symbol, cell line of CBA not given (LK35.2-hPD-L1 or 293T-hPD-L1), read-out: CBA IC50 cluster
[5] = cell binding assay, cell line not given, cluster symbol, read-out: CBA IC50 cluster

Compound	IC50 [1, 3] [nM]	IC50 [2, 4] [nM]	IC50 [2, 5] [nM]	IC50 ([1]; value given instead of cluster, read-out: HTRF IC50 value) [nM]	IC50 ([2]; cell binding assay, cell line not given, value given instead of cluster, read-out: CBA IC50 value) [nM]
CCCC[C@H]1C(=O)N(C)CC(=O)N[C@@H](CC(=O)O)C(=O)N[C@@H](C(C)C)C(=O)N(C)[C@@H](Cc2ccccc2)C(=O)N[C@@H](Cc2ccc(O)cc2)C(=O)N(C)CC(=O)N[C@@H](Cc2c[nH]c3ccccc23)C(=O)N[C@@H](Cc2ccc(O)cc2)C(=O)N[C@@H](CC(C)C)C(=O)N[C@H](C(=O)NCC(N)=O)CSCC(=O)N[C@@H](Cc2ccccc2)C(=O)N(C)[C@@H](Cc2cnc[nH]2)C(=O)N1C [Example 3056-A] (HELM PEPTIDE1{[O=C(C[*:3])[*:2]].F.[meH].[CCCC[C@@H](C(=O)[*:2])N(C)[*:1]].[Sar].D.V.[meF].Y.[Sar].W.Y.L.C.G.[am]}$PEPTIDE1,PEPTIDE1,1:R3-14:R3$$$V2.0)	> 30.5	> 74.3			
CCCC[C@H]1C(=O)N(C)CC(=O)N[C@@H](CC(=O)O)C(=O)N[C@@H](C(C)C)C(=O)N(C)[C@@H](Cc2ccccc2)C(=O)N[C@@H](Cc2c(F)c(F)c(F)c(F)c2F)C(=O)N(C)CC(=O)N[C@@H](Cc2c[nH]c3ccccc23)C(=O)N[C@@H](Cc2ccc(O)cc2)C(=O)N[C@@H](CC(C)C)C(=O)N[C@H](C(=O)NCC(N)=O)CSCC(=O)N[C@@H](Cc2ccccc2)C(=O)N(C)[C@@H](Cc2ccccc2)C(=O)N1C [Example 3079] ({CH2CO}-F[NMeF][NMeNle][Sar]DV[NMeF][Phe(F5)][Sar]WYLCG-NH2; thioether N-13)	> 30.5	4.78 to 72.9			
CCCC[C@H]1C(=O)N(C)[C@@H](CCCC)C(=O)N[C@@H](CCCNC(=N)N)C(=O)N[C@H](C(=O)NCC(N)=O)CSCC(=O)N[C@@H](Cc2ccc(O)cc2)C(=O)N(C)[C@@H](CCC(=O)O)C(=O)N[C@@H](CC(N)=O)C(=O)N2CCC[C@H]2C(=O)N[C@@H](Cc2cnc[nH]2)C(=O)N[C@@H](CC(C)C)C(=O)N(C)CC(=O)N[C@@H](Cc2c[nH]c3ccccc23)C(=O)N[C@@H](CO)C(=O)N[C@@H](Cc2c[nH]c3ccccc23)C(=O)N1C [Example 1189]	> 30.5	> 74.3			
CCCC[C@H]1C(=O)N[C@@H](CCCNC(=N)N)C(=O)NC(C(=O)NCC(N)=O)CSCC(=O)N[C@@H](Cc2ccc(O)cc2)C(=O)N(C)[C@@H](C)C(=O)N[C@@H](CC(N)=O)C(=O)N2CCC[C@H]2C(=O)N[C@@H](Cc2cnc[nH]2)C(=O)N[C@@H](CO)C(=O)N2C[C@H](O)C[C@H]2C(=O)N[C@@H](Cc2c[nH]c3ccccc23)C(=O)N[C@@H](CO)C(=O)N[C@@H](Cc2c[nH]c3ccccc23)C(=O)N(C)[C@@H](CCSC)C(=O)N1C (stereo partly shown) [Example 9113] ({CH2CO}-Y[NMeA]NPHS[Hyp]WSW[NMeM][NMeNle]R[ξC]G-NH2; thioether N-14)	6.76 to 30.3		4.78 to 72.9		
CCCC[C@H]1C(=O)N(C)[C@@H](CCCC)C(=O)N[C@@H](CCCNC(=N)N)C(=O)N[C@H](C(=O)NCC(N)=O)CSCC(=O)N[C@@H](Cc2ccccc2)C(=O)N(C)[C@@H](C)C(=O)N[C@@H](CC(N)=O)C(=O)N2CCC[C@H]2C(=O)N[C@@H](Cc2c[nH]cn2)C(=O)N[C@@H](CC(C)C)C(=O)N(C)CC(=O)N[C@@H](Cc2c[nH]c3ccccc23)C(=O)N[C@@H]([C@@H](C)O)C(=O)N[C@@H](Cc2c[nH]c3ccccc23)C(=O)N1C [Example 5008] ({CH2CO}-F[NMeA]NPHL[Sar]WTW[NMeNle][NMeNle]RCG-NH2; thioether N-14)				18.1	22.7
CCCC[C@H]1C(=O)N(C)CC(=O)N[C@@H](CC(=O)O)C(=O)N[C@@H](C(C)C)C(=O)N(C)[C@@H](Cc2ccccc2)C(=O)N[C@@H](Cc2ccc(O)cc2)C(=O)N(C)CC(=O)N[C@@H](Cc2c[nH]c3ccccc23)C(=O)N[C@@H](Cc2ccc(O)cc2)C(=O)N[C@@H](CC(C)C)C(=O)N[C@H](C(=O)NCC(N)=O)CSCC(=O)N[C@@H](Cc2cccc(Cl)c2)C(=O)N(C)[C@@H](Cc2ccccc2)C(=O)N1C [Example 3086] ({CH2CO}-[Phe(3-Cl)][NMeF][NMeNle][Sar]DV[NMeF]Y[Sar]WYLCG-NH2; thioether N-13)	0.385 to 6.74	0.158 to 4.71			
CCCC[C@H]1C(=O)N(C)[C@@H](CCCC)C(=O)N[C@@H](C)C(=O)N[C@H](C(=O)NCC(N)=O)CSCC(=O)N[C@@H](Cc2ccc(O)cc2)C(=O)N(C)[C@@H](C)C(=O)N[C@@H](CC(N)=O)C(=O)N2CCC[C@H]2C(=O)N[C@@H](Cc2cnc[nH]2)C(=O)N[C@@H](CC(C)C)C(=O)N2C[C@H](O)C[C@H]2C(=O)N[C@@H](Cc2c[nH]c3ccccc23)C(=O)N[C@@H](CCN)C(=O)N[C@@H](Cc2c[nH]c3ccccc23)C(=O)N1C [Example 5035]	0.385 to 6.74		0.158 to 4.71		
CCCC[C@H]1C(=O)N(C)[C@@H](CCCC)C(=O)N[C@@H](CCCNC(=N)N)C(=O)N[C@H](C(=O)NCC(N)=O)CSCC(=O)N[C@@H](Cc2ccc(O)cc2)C(=O)N(C)[C@@H](C)C(=O)N[C@@H](CC(N)=O)C(=O)N2CCC[C@H]2C(=O)N[C@@H](CN)C(=O)N[C@@H](CCC(=O)O)C(=O)N2C[C@H](O)C[C@H]2C(=O)N[C@@H](Cc2c[nH]c3ccccc23)C(=O)N[C@@H](CO)C(=O)N[C@@H](Cc2csc3ccccc23)C(=O)N1C [Example 1128] ({CH2CO}-Y[NMeA]NP[Dap]E[Hyp]WS[Bta][NMeNle][NMeNle]RCG-NH2; thioether N-14)	6.76 to 30.3	0.158 to 4.71			
CCCC[C@H]1C(=O)N(C)[C@@H](CCCC)C(=O)N[C@@H](C)C(=O)N[C@H](C(=O)NCC(N)=O)CSCC(=O)N[C@@H](Cc2ccc(O)cc2)C(=O)N(C)[C@@H](C)C(=O)N[C@@H](CC(N)=O)C(=O)N2CCC[C@H]2C(=O)N[C@@H](Cc2cnc[nH]2)C(=O)N[C@@H](CCC(=O)O)C(=O)N2C[C@H](O)C[C@H]2C(=O)N[C@@H](Cc2c[nH]c3ccccc23)C(=O)N[C@@H](CO)C(=O)N[C@@H](Cc2c[nH]c3ccccc23)C(=O)N1C [Example 1168]	0.385 to 6.74	0.158 to 4.71			
CCCC[C@H]1C(=O)N(C)[C@@H](CCCC)C(=O)N[C@@H](CCCNC(=N)N)C(=O)N[C@H](C(=O)NCC(N)=O)CSCC(=O)N[C@@H](Cc2ccc(O)cc2)C(=O)N(C)[C@@H](C)C(=O)N[C@@H](CCCN)C(=O)N2CCC[C@H]2C(=O)N[C@@H](C)C(=O)N[C@@H](CCC(=O)O)C(=O)N2C[C@@H](O)C[C@H]2C(=O)N[C@@H](Cc2c[nH]c3ccccc23)C(=O)N[C@@H](CO)C(=O)N[C@@H](Cc2c[nH]c3ccccc23)C(=O)N1C [Example 1147] ({CH2CO}-Y[NMeA][Orn]PAE[cisHyp]WSW[NMeNle][NMeNle]RCG-NH2; thioether N-14)	6.76 to 30.3	4.78 to 72.9			
CCCC[C@H]1C(=O)N[C@@H](CCCNC(=N)N)C(=O)N[C@H](C(=O)NCC(N)=O)CSCC(=O)N[C@@H](Cc2ccccc2)C(=O)N(C)[C@@H](C)C(=O)N[C@@H](CC(N)=O)C(=O)N2CCC[C@H]2C(=O)N[C@@H](Cc2cnc[nH]2)C(=O)N[C@@H](CC(C)C)C(=O)N(C)CC(=O)N[C@@H](Cc2c[nH]c3ccccc23)C(=O)N[C@@H](CO)C(=O)N(C)[C@@H](Cc2c[nH]c3ccccc23)C(=O)N(C)[C@@H](CCCC)C(=O)N1C [Example 1031] ({CH2CO}-F[NMeA]NPHL[Sar]WS[NMeW][NMeNle][NMeNle]RCG-NH2; thioether N-14)	> 30.5	> 74.3			
CCCC[C@H]1C(=O)N(C)CC(=O)N[C@@H](CC(=O)O)C(=O)N[C@@H](C(C)C)C(=O)N(C)[C@@H](Cc2ccccc2)C(=O)N[C@@H](Cc2ccc3ccccc3c2)C(=O)N(C)CC(=O)N[C@@H](Cc2c[nH]c3ccccc23)C(=O)N[C@@H](Cc2ccc(O)cc2)C(=O)N[C@@H](CC(C)C)C(=O)N[C@H](C(=O)NCC(N)=O)CSCC(=O)N[C@@H](Cc2ccccc2)C(=O)N(C)[C@@H](Cc2ccccc2)C(=O)N1C [Example 3535] ({CH2CO}-F[NMeF][NMeNle][Sar]DV[NMeF][2Nal][Sar]WYLCG-NH2; thioether N-13)	> 30.5		4.78 to 72.9		
CCCC[C@H]1C(=O)N(C)[C@@H](CCCC)C(=O)N[C@@H](CCCNC(=N)N)C(=O)NC(C(=O)N[C@@H](CO)C(N)=O)CSCC(=O)N[C@@H](Cc2ccc(O)cc2)C(=O)N(C)[C@@H](C)C(=O)N[C@@H](CC(N)=O)C(=O)N2CCC[C@H]2C(=O)N[C@@H](CO)C(=O)N[C@@H](CC(C)C)C(=O)N2C[C@H](O)C[C@H]2C(=O)N[C@@H](Cc2c[nH]c3ccccc23)C(=O)N[C@@H](CO)C(=O)N[C@@H](Cc2c[nH]c3ccccc23)C(=O)N1C (stereo partly shown) [Example 9080] ({CH2CO}-Y[NMeA]NPSL[Hyp]WSW[NMeNle][NMeNle]R[ξC]S-NH2; thioether N-14)	0.385 to 6.74		0.158 to 4.71		
CCCC[C@H]1C(=O)N(C)[C@@H](CCCC)C(=O)N[C@@H](CCC(=O)O)C(=O)N[C@H](C(=O)NCC(N)=O)CSCC(=O)N[C@@H](Cc2ccc(O)cc2)C(=O)N(C)[C@@H](C)C(=O)N[C@@H](CC(=O)O)C(=O)N2CCC[C@H]2C(=O)N[C@@H](Cc2c[nH]cn2)C(=O)N[C@@H](CCCCN)C(=O)N2C[C@H](C3CCCCC3)C[C@H]2C(=O)N[C@@H](Cc2c[nH]c3ccccc23)C(=O)N[C@@H](CCCCN)C(=O)N[C@@H](Cc2c[nH]c3ccccc23)C(=O)N1C [Example 14008] ({CH2CO}-Y[NMeA]DPHK[Pro(trans-4-cHex)]WKW[NMeNle][NMeNle]ECG-NH2; thioether N-14)	0.385 to 6.74		0.158 to 4.71		
